Laboratory results taken from patent US20260216057A1, “PHARMACEUTICAL COMPOSITIONS FOR HERPES VIRUS” (priority 2022, published 2026).

Legend:
[1] = Allometric scaling of multi-species PK data to human
[2] = Example 13A: Compound 1 IV PK study in monkey; assay type: in vivo, male non-naïve cynomolgus monkeys; settings: 0.2 mg/kg
Experimental: A 0.2 mg/mL solution of Compound 1 in 10% DMSO, 10% Solutol HS15 and 80% Saline was prepared as follows: • 1) A stock solution of Compound 1 in DMSO was prepared. • 2) An equal volume of the Compound 1 stock solution and Solutol HS15 were combined and mixed. • 3) The above solution was diluted with normal saline to reach the target concentration. The final formulation was a clear solution. Male non-naïve Cyno Monkeys with were used for the monkey PK study. The animals had free access to food and water. The Compound 1 solution described above was administered via intravenous injection (1 mL/kg) to each animal (n=3) to achieve a 0.2 mg/kg dose. At each time point, approximately 0.5 mL whole blood was collected into K2EDTA tubes. Blood samples were put on to ice and centrifuged at 2000 g for 5 min to obtain plasma sample within 15 minutes. Plasma samples were stored at approximately −70° C. until analyzed by LC-MS.

[3] = Example 7: Compound 1 aqueous suspension SC PK study in rat; assay type: in vivo, male Sprague Dawley rats; settings: aqueous suspension (Form A), 10 mg/kg
Experimental: The LC-MS methodology and conditions used to analyse the helicase-primase inhibitor Compound 1 in plasma samples from the sub-cutaneous injection PK studies (Examples 7 and 10-12) are described in Table 3 and Table 4. An aqueous suspension of crystalline Compound 1 (Form A) was prepared in a 0.9% NaCl+0.5% polysorbate 80 vehicle at a concentration of 3.0 mg/mL as described in Example 2. The suspension was then dosed to male SD rats at 10 mg/kg according to the Example 2 animal dosing method.

[4] = Example 11: Compound 1 (Form A) aqueous suspension SC PK study in monkey; assay type: in vivo, male cynomolgus monkeys; settings: 10 mg/kg, following an initial drug burst
Experimental: An aqueous suspension of Compound 1 free form (Form A) in a 0.9% NaCl+0.5% polysorbate 80 vehicle at a concentration of 3.0 mg/mL was prepared as follows: • 1) Vehicle (0.9% w/w NaCl and 0.5% w/w polysorbate 80) was prepared by dissolving NaCl and polysorbate 80 in water. • 2) Appropriate amount of Compound 1 was weighed and added to the vehicle. • 3) The mixture was stirred for 15 minutes, then vortexed for 1 minute and then sonicated for 10 minutes. • 4) The final dosing formulation was a homogenous white cloudy suspension.
Male non-naïve Cyno Monkeys with ~4-6 kg body weight were used for the monkey PK study. The animals had free access to food and water. The prepared suspension was administered via subcutaneous injection to each animal group (n=3) with a dosing volume of 3.33 mL/kg to achieve a 10 mg/kg dose.
At each time point, approximately 0.5 mL whole blood was collected via the cephalic and saphenous vein into K2EDTA tubes. Blood samples were put on to ice and centrifuged at 2000 g for 5 min to obtain plasma sample within 15 minutes. Plasma samples were stored at approximately −70° C. until analyzed by LC-MS.

[5] = Example 2: pritelivir aqueous suspension SC PK study in rat at lower dose; assay type: in vivo, male Sprague Dawley rats; settings: aqueous suspension (dihydrate), 10 mg/kg
Experimental: (§1) The LC-MS methodology and conditions used to analyse pritelivir in plasma samples from the PK studies described in Examples 1 to 5 are provided in Table 1.
(§2) An aqueous suspension of crystalline pritelivir free base (dihydrate) in a 0.9% NaCl+0.5% polysorbate 80 vehicle at a concentration of 3.0 mg/mL was prepared as follows: • 1) Vehicle (0.9% w/w NaCl and 0.5% w/w polysorbate 80) was prepared by dissolving NaCl and polysorbate 80 in water. • 2) Appropriate amount of crystalline pritelivir free base (dihydrate) was weighed and added to the vehicle. • 3) Mixture was stirred for 15 minutes, then vortexed for 1 minute and then sonicated for 10 minutes. • 4) The final dosing formulation was a homogenous white cloudy suspension.
Male SD rats with 230-250 g body weight, ages 6-8 weeks were used for the rat PK study. The animals had free access to food and water. The prepared suspension was administered via subcutaneous injection to each animal group (n=3) with a dosing volume of 3.33 mL/kg to achieve a 10 mg/kg dose.
At each time point, approximately 200 μL whole blood was collected via the jugular vein into K2EDTA tubes. Blood samples were put on to ice and centrifuged at 2000 g for 5 min to obtain plasma sample within 15 minutes. Plasma samples were stored at approximately −70° C. until analyzed by LC-MS.

[6] = test system: recurrent genital HSV-2; settings: 28 days daily oral dosing; pritelivir 100 mg (after 400 mg loading dose), valacyclovir 500 mg; cited from earlier work
[7] = test system: genital HSV; settings: oral, 28 days, cited from earlier work
[8] = test system: HSV-1; settings: Field et al. (2013); read-out: in-vitro EC50 against HSV-1; cited from earlier work
[9] = test system: HSV-2; settings: Field et al. (2013); read-out: in-vitro EC50 against HSV-2; cited from earlier work
[10] = Example 1: pritelivir aqueous suspension SC PK study in rat; assay type: in vivo, male Sprague Dawley rats; settings: aqueous suspension (dihydrate), 33.33 mg/kg and 166.67 mg/kg, both dosing levels
Experimental: as §1
as §2, with “at concentrations” for “at a concentration”, “of 10.0 mg/mL and 50.0” for “of 3.0”, “was” for “was stirred for 15 minutes, then”, “1 minute, stirred for 10 minutes” for “1 minute”, “for 15” for “for 10”
Male Sprague Dawley (SD) rats with ~300 g body weight (ages 6-8 weeks) were used for the pharmacokinetic study. The animals had free access to food and water. The pritelivir suspensions described above were administered via sub-cutaneous injection to each animal group (n=3) with a dosing volume of 3.33 mL/kg to achieve 33.33 mg/kg and 166.67 mg/kg doses.
At each time point, approximately 200 μL whole blood was collected in a K2EDTA tube via the jugular vein. Blood samples were put on ice and centrifuged at 2000 g for 5 min to obtain a plasma sample within 15 minutes. Plasma samples were stored at approximately −70° C. until analyzed by LC-MS.

predicted human clearance [1] | Clearance [2] | half-life [2] | prolonged exposure out to (length of the study) [3] | prolonged exposure out to [4] | prolonged exposure out to (length of the study) [5] | prolonged exposure out to (length of the study) [10] | SMILES | HSV shedding, % of genital swabs analysed [6] | rate of genital HSV shedding ([7]; at high doses, vs placebo) | number of days with lesions ([7]; men and women with genital herpes) | EC50 [8] | EC50 [9]
0.06 L/h | 4 mL/h/kg | 72 h | at least 144 hours | at least 220 days | – | – | Cc1nc(N2CCCN(c3ccc(-c4cc(F)ccc4F)cc3)C2=O)sc1S(N)(=O)=O [Compound 1, 2-(3-(2′,5′-difluoro-[1,1′-biphenyl]-4-yl)-2-oxotetrahydropyrimidin-1(2H)-yl)-4-methylthiazole-5-sulfonamide] | – | – | – | – | –
– | – | – | – | – | at least 144 hours | at least 720 hours | Cc1nc(N(C)C(=O)Cc2ccc(-c3ccccn3)cc2)sc1S(N)(=O)=O [pritelivir, N-methyl-N-(4-methyl-5-sulfamoyl-1,3-thiazol-2-yl)-2-[4-(pyridin-2-yl)phenyl]acetamide] | 2.4% | reduced the rate of genital HSV shedding | reduced the number of days with lesions | 26 nM | 29 nM
